From ChEMBL document CHEMBL3885881, “DrugMatrix”

Organism: Rattus norvegicus
Test: DrugMatrix - Regimen: Daily Repeat
Assay type: toxicity, organism-based, Sprague-Dawley
Parameters: regimen Daily Repeat, gender Male, age 6-8 weeks
Conditions: in vivo, po, route oral GAVAGE, vehicle 100 % WATER; for ABSOLUTE BASOPHIL / ABSOLUTE EOSINOPHIL / ABSOLUTE LYMPHOCYTE / ABSOLUTE MONOCYTE / ABSOLUTE SEGMENTED NEUTROPHIL / BASOPHIL / EOSINOPHIL / ERYTHROCYTE COUNT / HEMATOCRIT / HEMOGLOBIN / LEUKOCYTE COUNT / LYMPHOCYTE / MEAN CORPUSCULAR HEMOGLOBIN / MEAN CORPUSCULAR HEMOGLOBIN CONCENTRATION / MEAN CORPUSCULAR VOLUME / MONOCYTE / NEUTROPHIL / NUCLEATED RED BLOOD CELLS / PLATELET COUNT: tissue Blood; for ALANINE AMINOTRANSFERASE / ALBUMIN / ALKALINE PHOSPHATASE / ASPARTATE AMINOTRANSFERASE / BLOOD UREA NITROGEN / CARBON DIOXIDE / CHLORIDE / CHOLESTEROL / CREATINE PHOSPHOKINASE / CREATININE / GLUCOSE / LACTATE DEHYDROGENASE / LIPASE / PHOSPHORUS / POTASSIUM / SODIUM / TOTAL BILIRUBIN / TOTAL PROTEIN / URIC ACID: tissue Plasma
[1] = 0 mg/kg, 72 h, dose level Control, time 3 day
[2] = 0 mg/kg, 120 h, dose level Control, time 5 day
[3] = 25 mg/kg, 72 h, dose level Low, time 3 day
[4] = 25 mg/kg, 120 h, dose level Low, time 5 day

## CCC1(c2ccccc2)C(=O)NC(=O)NC1=O [PHENOBARBITAL]
[1]
  ABSOLUTE BASOPHIL: 0 CELLS/uL
  ABSOLUTE EOSINOPHIL: 32.5 CELLS/uL
  ABSOLUTE LYMPHOCYTE: 9305.83 CELLS/uL
  ABSOLUTE MONOCYTE: 43.83 CELLS/uL
  ABSOLUTE SEGMENTED NEUTROPHIL: 817.83 CELLS/uL
  BASOPHIL: 0%
  EOSINOPHIL: 0.33%
  ERYTHROCYTE COUNT: 5.38 x10E6/uL
  HEMATOCRIT: 33.63%
  HEMOGLOBIN: 13.17 G/DL
  LEUKOCYTE COUNT: 10.2 x10E3/uL
  LYMPHOCYTE: 91.17%
  MEAN CORPUSCULAR HEMOGLOBIN: 24.5 pg
  MEAN CORPUSCULAR HEMOGLOBIN CONCENTRATION: 39.13 G/DL
  MEAN CORPUSCULAR VOLUME: 62.53 fL
  MONOCYTE: 0.5%
  NEUTROPHIL: 8%
  NUCLEATED RED BLOOD CELLS: 0.17 /100WBC
  PLATELET COUNT: 858 x10E3/uL
  ALANINE AMINOTRANSFERASE: 55.67 u/L
  ALBUMIN: 4.07 G/DL
  ALKALINE PHOSPHATASE: 337 u/L
  ASPARTATE AMINOTRANSFERASE: 84 u/L
  BLOOD UREA NITROGEN: 13.17 mg/dL
  CARBON DIOXIDE: 34.17 mmol/L
  CHLORIDE: 99.33 MEQ/L
  CHOLESTEROL: 78.83 mg/dL
  CREATINE PHOSPHOKINASE: 576.83 u/L
  CREATININE: 0.17 mg/dL
  GLUCOSE: 152.67 mg/dL
  LACTATE DEHYDROGENASE: 147.83 u/L
  LIPASE: 9.5 u/L
  PHOSPHORUS: 10.78 mg/dL
  POTASSIUM: 6.34 MEQ/L
  SODIUM: 144.12 MEQ/L
  TOTAL BILIRUBIN: 0.18 mg/dL
  TOTAL PROTEIN: 6.08 G/DL
  URIC ACID: 0.65 mg/dL
[2]
  ABSOLUTE BASOPHIL: 0 CELLS/uL
  ABSOLUTE EOSINOPHIL: 31.17 CELLS/uL
  ABSOLUTE LYMPHOCYTE: 7918.33 CELLS/uL
  ABSOLUTE MONOCYTE: 58.33 CELLS/uL
  ABSOLUTE SEGMENTED NEUTROPHIL: 725.5 CELLS/uL
  BASOPHIL: 0%
  EOSINOPHIL: 0.33%
  ERYTHROCYTE COUNT: 5.32 x10E6/uL
  HEMATOCRIT: 33.53%
  HEMOGLOBIN: 13.17 G/DL
  LEUKOCYTE COUNT: 8.73 x10E3/uL
  LYMPHOCYTE: 90.33%
  MEAN CORPUSCULAR HEMOGLOBIN: 24.82 pg
  MEAN CORPUSCULAR HEMOGLOBIN CONCENTRATION: 39.33 G/DL
  MEAN CORPUSCULAR VOLUME: 63.12 fL
  MONOCYTE: 0.67%
  NEUTROPHIL: 8.67%
  NUCLEATED RED BLOOD CELLS: 0 /100WBC
  PLATELET COUNT: 1144.83 x10E3/uL
  ALANINE AMINOTRANSFERASE: 60.5 u/L
  ALBUMIN: 3.97 G/DL
  ALKALINE PHOSPHATASE: 343.17 u/L
  ASPARTATE AMINOTRANSFERASE: 80.83 u/L
  BLOOD UREA NITROGEN: 15 mg/dL
  CARBON DIOXIDE: 31 mmol/L
  CHLORIDE: 99.75 MEQ/L
  CHOLESTEROL: 71.5 mg/dL
  CREATINE PHOSPHOKINASE: 237.17 u/L
  CREATININE: 0.17 mg/dL
  GLUCOSE: 137 mg/dL
  LACTATE DEHYDROGENASE: 146.17 u/L
  LIPASE: 11.5 u/L
  PHOSPHORUS: 10.13 mg/dL
  POTASSIUM: 6 MEQ/L
  SODIUM: 145 MEQ/L
  TOTAL BILIRUBIN: 0.13 mg/dL
  TOTAL PROTEIN: 5.82 G/DL
  URIC ACID: 0.62 mg/dL
[3]
  ABSOLUTE BASOPHIL: 0 CELLS/uL
  ABSOLUTE EOSINOPHIL: 0 CELLS/uL
  ABSOLUTE LYMPHOCYTE: 9305.33 CELLS/uL
  ABSOLUTE MONOCYTE: 110 CELLS/uL
  ABSOLUTE SEGMENTED NEUTROPHIL: 784.67 CELLS/uL
  BASOPHIL: 0%
  EOSINOPHIL: 0%
  ERYTHROCYTE COUNT: 5.23 x10E6/uL
  HEMATOCRIT: 33.43%
  HEMOGLOBIN: 13.03 G/DL
  LEUKOCYTE COUNT: 10.2 x10E3/uL
  LYMPHOCYTE: 92.33%
  MEAN CORPUSCULAR HEMOGLOBIN: 24.97 pg
  MEAN CORPUSCULAR HEMOGLOBIN CONCENTRATION: 39 G/DL
  MEAN CORPUSCULAR VOLUME: 63.97 fL
  MONOCYTE: 0.67%
  NEUTROPHIL: 7%
  NUCLEATED RED BLOOD CELLS: 0 /100WBC
  PLATELET COUNT: 972.33 x10E3/uL
  ALANINE AMINOTRANSFERASE: 52.33 u/L
  ALBUMIN: 4 G/DL
  ALKALINE PHOSPHATASE: 326.67 u/L
  ASPARTATE AMINOTRANSFERASE: 74.67 u/L
  BLOOD UREA NITROGEN: 12 mg/dL
  CARBON DIOXIDE: 35 mmol/L
  CHLORIDE: 97.5 MEQ/L
  CHOLESTEROL: 87.67 mg/dL
  CREATINE PHOSPHOKINASE: 212 u/L
  CREATININE: 0.15 mg/dL
  GLUCOSE: 146.33 mg/dL
  LACTATE DEHYDROGENASE: 153.33 u/L
  LIPASE: 12 u/L
  PHOSPHORUS: 11.73 mg/dL
  POTASSIUM: 6.16 MEQ/L
  SODIUM: 143.95 MEQ/L
  TOTAL BILIRUBIN: 0.2 mg/dL
  TOTAL PROTEIN: 5.83 G/DL
  URIC ACID: 0.83 mg/dL
[4]
  ABSOLUTE BASOPHIL: 0 CELLS/uL
  ABSOLUTE EOSINOPHIL: 0 CELLS/uL
  ABSOLUTE LYMPHOCYTE: 5785.67 CELLS/uL
  ABSOLUTE MONOCYTE: 18.33 CELLS/uL
  ABSOLUTE SEGMENTED NEUTROPHIL: 262.67 CELLS/uL
  BASOPHIL: 0%
  EOSINOPHIL: 0%
  ERYTHROCYTE COUNT: 5.55 x10E6/uL
  HEMATOCRIT: 34.67%
  HEMOGLOBIN: 13.1 G/DL
  LEUKOCYTE COUNT: 6.07 x10E3/uL
  LYMPHOCYTE: 94.33%
  MEAN CORPUSCULAR HEMOGLOBIN: 23.57 pg
  MEAN CORPUSCULAR HEMOGLOBIN CONCENTRATION: 37.77 G/DL
  MEAN CORPUSCULAR VOLUME: 62.47 fL
  MONOCYTE: 0.33%
  NEUTROPHIL: 5.33%
  NUCLEATED RED BLOOD CELLS: 0 /100WBC
  PLATELET COUNT: 1109.67 x10E3/uL
  ALANINE AMINOTRANSFERASE: 55.33 u/L
  ALBUMIN: 4.13 G/DL
  ALKALINE PHOSPHATASE: 380.67 u/L
  ASPARTATE AMINOTRANSFERASE: 85 u/L
  BLOOD UREA NITROGEN: 17.67 mg/dL
  CARBON DIOXIDE: 32.67 mmol/L
  CHLORIDE: 100 MEQ/L
  CHOLESTEROL: 89.67 mg/dL
  CREATINE PHOSPHOKINASE: 357 u/L
